Patent publication US20250090524A1, “BTK INHIBITORS” (BIOGEN MA INC., priority 2021, published 2025)

Columns and labels:
[1] = test system: CD69 expression on CD19+ B cells in human whole blood; assay: In Vitro Whole Blood CD69 Assay; assay type: cell-based; conditions: B-cell; human heparinized whole blood, anti-human IgD stimulation, overnight (18 to 22 hours), percentage of CD19+ B cells expressing CD69, flow cytometry; read-out: In Vitro HWB CD69 Assay IC50 Score
Method: Human heparinized venous blood from health donors was aliquoted into 96-well plate and “spiked” with serial dilutions of formula I compounds in DMSO or with DMSO without drug. The final concentration of DMSO in all wells was 0.1%. The plate was incubated at 37° C. for 30 min. Drug-containing samples were stimulated with […] mouse anti-human IgD-dextran (1A62) or 20 μg/mL polyclonal rabbit F(ab′)2 anti-human IgD.
Phosphate-buffered saline (PBS) was added to the negative control unstimulated sample and the plates were incubated overnight (18 to 22 hours) at 37° C. Cells were stained with fluorochrome-conjugated anti-CD19 and anti-CD69 antibodies. Lyse/fix solution was used to remove red blood cells by hypotonic lysis and to fix the remaining cells, which were then analyzed by flow cytometry. CD19+B cells were gated and analyzed for CD69 expression.
The percentage of B cells expressing CD69 was plotted versus the log 10 of the concentration of the drug and the best-fit curves (variable Hill slope) were generated to obtain the IC50 value.
“†” represents an IC50 of greater than 10 μM. “††” represents an IC50 of greater than 1 μM and equal to or less than 10 μM (1 μM<IC50≤10 μM). “†††” represents an IC50 of less than 1 μM.

[2] = biological target: T1, BTK (Homo sapiens, UniProt Q06187); assay: In Vitro BTK Kinase Assay: Btk-PolyGAT-LS Assay; assay type: biochemical; conditions: active BTK enzyme 0.25 nM, fluorescein-labeled polyGAT peptide 100 nM, 30 minutes incubation, TRF readout; read-out: In Vitro BTK Kinase Assay IC50 Score
T1 construct: purchased Upstate 14-552
T1 sequence (Q06187 whole entry): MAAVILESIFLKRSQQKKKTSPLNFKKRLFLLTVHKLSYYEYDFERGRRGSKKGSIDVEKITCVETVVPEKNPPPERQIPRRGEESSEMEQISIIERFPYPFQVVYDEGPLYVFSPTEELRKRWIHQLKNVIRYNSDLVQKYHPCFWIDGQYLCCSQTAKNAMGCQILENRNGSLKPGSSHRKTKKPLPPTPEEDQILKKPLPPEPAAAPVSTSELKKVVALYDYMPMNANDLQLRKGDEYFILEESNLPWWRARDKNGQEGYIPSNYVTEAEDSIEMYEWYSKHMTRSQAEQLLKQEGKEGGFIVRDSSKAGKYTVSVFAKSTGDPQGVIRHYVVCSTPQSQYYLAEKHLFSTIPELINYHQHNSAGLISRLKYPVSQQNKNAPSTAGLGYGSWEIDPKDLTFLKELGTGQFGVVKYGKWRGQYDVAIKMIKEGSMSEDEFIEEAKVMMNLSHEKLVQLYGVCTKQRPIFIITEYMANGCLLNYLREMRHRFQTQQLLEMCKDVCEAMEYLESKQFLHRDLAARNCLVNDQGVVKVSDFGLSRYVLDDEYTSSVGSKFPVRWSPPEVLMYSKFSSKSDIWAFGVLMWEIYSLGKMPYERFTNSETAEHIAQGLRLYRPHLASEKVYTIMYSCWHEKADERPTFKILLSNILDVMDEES
Method: The purpose of the BTK in vitro assay is to determine compound potency against BTK through the measurement of IC50. Compound inhibition is measured after monitoring the amount of phosphorylation of a fluorescein-labeled polyGAT peptide (Invitrogen PV3611) in the presence of active BTK enzyme (Upstate 14-552), ATP, and inhibitor. The BTK kinase reaction was done in a black 96 well plate (costar 3694). For a typical assay, a 24 μL aliquot of a ATP/peptide master mix (final concentration; ATP […], polyGAT 100 nM) in kinase buffer (10 mM Tris-HCl pH 7.5, 10 mM MgCl2, 200 μM […], 5 mM DTT, 0.01% Triton X-100, and 0.2 mg/ml casein) is added to each well. Next, I uL of a 4-fold, 40× compound titration in 100% DMSO solvent is added, followed by adding […] of BTK enzyme mix in 1× kinase buffer (with a final concentration of 0.25 nM). The assay is incubated for 30 minutes before being stopped with […] of a 50 mM EDTA solution. Aliquots (5 uL) of the kinase reaction are transferred to a low volume white 384 well plate (Corning 3674), and […] of a 2× detection buffer (Invitrogen PV3574, with 4 nM Tb-PY20 antibody, Invitrogen PV3552) is added. The plate is covered and incubated for 45 minutes at room temperature. Time resolved fluorescence (TRF) on Molecular Devices M5 (332 nm excitation; 488 nm emission; 518 nm fluorescein emission) is measured. IC50 values are calculated using a four parameter fit with 100% enzyme activity determined from the DMSO control and 0% activity from the EDTA control.
“†” represents an IC50 of greater than 1 μM and equal to or less than 10 μM. “††” represents an IC50 of greater than 10 nM and equal to or less than 1 μM (10 nM<IC50≤1 μM). “†††” represents an IC50 of greater than 1 nM and equal to or less than 10 nM (1 nM<IC50≤10 nM). “††††” represents an IC50 of less than 1 nM.

| Structure (SMILES) | IC50 [1] | IC50 [2] |
| --- | --- | --- |
| C=CC(=O)N1C2CCC1CC(c1nc(-c3cnn(C)c3)cn3nccc13)C2 (stereo not drawn) [Example 11, 1-[3-[6-(1-methylpyrazol-4-yl)pyrazolo[1,5-a]pyrazin-4-yl]-8-azabicyclo [3.2.1]octan-8-yl]prop-2-en-1-one] | 1000 to 10000 nM | 1 to 10 nM |
| C=CC(=O)N1C2CCCC1CC(c1nc(-c3cnn(C)c3)cn3nccc13)C2 (stereo not drawn) [Example 13, 1-[3-[6-(1-methylpyrazol-4-yl)pyrazolo[1,5-a]pyrazin-4-yl]-9-azabicyclo[3.3.1]nonan-9-yl]prop-2-en-1-one] | 1000 to 10000 nM | 1 to 10 nM |
| C=CC(=O)Nc1cccc(-c2nc(-c3cnn(C)c3)cn3nccc23)c1 [Example 28, N-(3-(6-(1-methyl-1H-pyrazol-4-yl)pyrazolo[1,5-a]pyrazin-4-yl)phenyl) acrylamide] | 1000 to 10000 nM | 10 to 1000 nM |
| C=CC(=O)N(C)c1cccc(-c2nc(-c3cnn(C)c3)cn3nccc23)c1 [Example 29, N-methyl-N-(3-(6-(1-methyl-1H-pyrazol-4-yl)pyrazolo[1,5-a]pyrazin-4-yl)phenyl)acrylamide] | 1000 to 10000 nM | 1 to 10 nM |

Results, then the molecule that gave them:

| IC50 [1] | IC50 [2] | Structure (SMILES) |
| --- | --- | --- |
| 1000 to 10000 nM | 1 to 10 nM | C=CC(=O)N1CC2CCC1CC2c1nc(-c2cnn(C)c2)cn2nccc12 (stereo not drawn) [Example 14, 1-[5-[6-(1-methylpyrazol-4-yl)pyrazolo[1,5-a]pyrazin-4-yl]-2-azabicyclo[2.2.2]octan-2-yl]prop-2-en-1-one] |
| 1000 to 10000 nM | 10 to 1000 nM | C=CC(=O)N1CCC(c2nc(-c3cnn(C)c3)cn3nccc23)C(C)C1 (stereo not drawn) [Example 15, 1-[3-methyl-4-[6-(1-methylpyrazol-4-yl)pyrazolo[1,5-a]pyrazin-4-yl]-1-piperidyl]prop-2-en-1-one] |
